Reference: patent US4018801A, “Substituted oxirane compounds” (The Dow Chemical Company, priority 1975, dated 1977)

Columns and labels:
Format in all cases: in vivo
Barnyard Grass = experiment: Pre-emergent control of seed germination, soil drench; details: Barnyard Grass, about 2 weeks
Outline: (§1)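 Compound formulated with Span 85/Tween 80 in acetone, dispersed in water, and applied as a soil drench to seeded beds at 1.0, 2.0 and 5.0 lb/acre (about 1.6, 3.2, 8.0 ppm soil); lower concentrations also tested. Germination control scored versus untreated checks after about 2 weeks.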

Pigweeds = experiment: as above; details: Pig Weeds, about 2 weeks
Outline: as §1

Wild Oats = experiment: as above; details: Wild Oats, about 2 weeks
Outline: as §1

Yellow Foxtail [1] = experiment: as above; details: Yellow Foxtail, about 2 weeks
Outline: as §1

Cultured Rice = experiment: Post-emergent control, foliage spray; details: about two weeks
Procedure: (§2) An aqueous composition containing 2-(m-bromophenyl)- 2-(2,2,2-trichloroethyl)oxirane was prepared as described in Example 32. Separate portions of this composition were thereafter dispersed in a further quantity of water to prepare aqueous spray compositions containing 250, 500, 1000, 2000 and 4000 parts, respectively of the compound per million parts by weight of ultimate treating composition. These compositions were applied as foliage sprays to various grass and broadleaf plant species, the plants being of two to four inches in height and growing in seed beds. The treatments were carried out with conventional spray equipment, the plants being sprayed to the point of run-off. Similar beds of the plant species were left untreated to serve as checks. After about two weeks, the beds were examined to ascertain what control of the growth of plants had been obtained. The plant species employed, together with the percent control obtained at the employed dosage rate of the composition is set forth in the following Table V.

Yellow Foxtail [2] = experiment: Post-emergent control, foliage spray; details: about two weeks
Procedure: as §2

In the case of `ClC(Cl)(Cl)CC1(c2cccc(Br)c2)CO1` (stereo not shown) [Example 3, 2-(m-bromophenyl)-2-(2,2,2-trichloroethyl)oxirane], the “Percent Pre-Emergent Control of Seed Germination” value (“Percent Pre-Emergent Control” below) (Barnyard Grass; 1.0 pounds per surface acre) is reported as 95%, the “Percent Pre-Emergent Control” value (Barnyard Grass; 2.0 pounds per surface acre) is reported as 95% and the “Percent Pre-Emergent Control” value (Barnyard Grass; 5.0 pounds per surface acre) is reported as 95%. The “Percent Pre-Emergent Control” value (Pigweeds; 1.0 pounds per surface acre) was 95%, the “Percent Pre-Emergent Control” value (Pigweeds; 2.0 pounds per surface acre) was 100% and the “Percent Pre-Emergent Control” value (Pigweeds; 5.0 pounds per surface acre) was 100%. For the same molecule, the “Percent Pre-Emergent Control” value (Wild Oats; 1.0 pounds per surface acre) was 100%, the “Percent Pre-Emergent Control” value (Wild Oats; 2.0 pounds per surface acre) was 100% and the “Percent Pre-Emergent Control” value (Wild Oats; 5.0 pounds per surface acre) was 100%. For the same molecule, the “Percent Pre-Emergent Control” value (Yellow Foxtail [1]; 1.0 pounds per surface acre) was 100%, the “Percent Pre-Emergent Control” value (Yellow Foxtail [1]; 2.0 pounds per surface acre) was 100% and the “Percent Pre-Emergent Control” value (Yellow Foxtail [1]; 5.0 pounds per surface acre) was 95%. The “Percent Post-Emergent Control of Seed Germination” value (shortened to “Percent Post-Emergent Control”) (Cultured Rice; 250 parts per million) was 0%, the “Percent Post-Emergent Control” value (Cultured Rice; 500 parts per million) was 0% and the “Percent Post-Emergent Control” value (Cultured Rice; 1000 parts per million) was 0%. The “Percent Post-Emergent Control” value (Cultured Rice; 2000 parts per million) was 40%, the “Percent Post-Emergent Control” value (Cultured Rice; 4000 parts per million) was 50% and the “Percent Post-Emergent Control” value (Yellow Foxtail [2]; 250 parts per million) was 40%. For the same molecule, the “Percent Post-Emergent Control” value (Yellow Foxtail [2]; 500 parts per million) was 95%, the “Percent Post-Emergent Control” value (Yellow Foxtail [2]; 1000 parts per million) was 95% and the “Percent Post-Emergent Control” value (Yellow Foxtail [2]; 2000 parts per million) was 95%. The “Percent Post-Emergent Control” value (Yellow Foxtail [2]; 4000 parts per million) was 95%.
